Measurements from patent US20230002377A1, “THERAPEUTIC COMBINATIONS OF DRUGS AND METHODS OF USING THEM” (HARMONY BIOSCIENCES, LLC, priority 2020, published 2023).

Target: Transporter, Norepinephrine (NET) (Homo sapiens, UniProt P23975)
Test: NET radioligand binding ([125I] RTI-55), Eurofins
Conditions: read-out: NET, % inhibition, 10 nM compound
Protocol: Source: Human recombinant MDCK cells;
Incubation Time/Temp: 3 hours @ 4° C.;
Incubation Buffer: 50 mM Tris-HCl, pH 7.4, 100 mM NaCl, 1 μM Leupeptin, 10 μM PMSF;
Non-Specific Ligand: 10.0 μM Desipramine;
Quantitation Method: Radioligand Binding;

Transporter, Norepinephrine (NET), sequence (P23975 whole entry): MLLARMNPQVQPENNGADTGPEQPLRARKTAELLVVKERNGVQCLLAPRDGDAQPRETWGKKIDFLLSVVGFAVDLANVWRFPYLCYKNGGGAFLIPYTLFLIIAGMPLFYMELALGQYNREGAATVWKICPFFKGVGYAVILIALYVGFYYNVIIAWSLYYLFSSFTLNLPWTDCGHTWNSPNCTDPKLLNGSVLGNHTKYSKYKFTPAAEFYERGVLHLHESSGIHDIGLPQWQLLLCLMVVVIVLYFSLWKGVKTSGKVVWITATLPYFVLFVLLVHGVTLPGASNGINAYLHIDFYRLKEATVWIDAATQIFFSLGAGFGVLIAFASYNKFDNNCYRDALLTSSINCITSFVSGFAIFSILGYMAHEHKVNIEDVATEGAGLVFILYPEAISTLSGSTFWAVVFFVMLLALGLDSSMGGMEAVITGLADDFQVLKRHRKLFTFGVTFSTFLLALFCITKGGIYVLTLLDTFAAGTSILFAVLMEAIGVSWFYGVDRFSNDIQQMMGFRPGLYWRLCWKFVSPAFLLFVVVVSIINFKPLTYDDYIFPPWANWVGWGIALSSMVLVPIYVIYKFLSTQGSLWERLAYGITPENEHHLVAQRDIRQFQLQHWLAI

Structure (SMILES): Clc1ccc(C2CNCc3cc(-c4ccc5ncnn5c4)ccc32)cc1Cl (stereo not shown) [Formula I, 7-([1,2,4]triazolo[1,5-a]pyridin-6-yl)-4-(3,4-dichlorophenyl)-1,2,3,4-tetrahydroisoquinoline]
- inhibition at 0.01 µM: 35%
